Measured values published in US7534444B2, “Molecular mimetics of meningococcal B epitopes which elicit functionally active antibodies” (priority 2001, dated 2009).
Ends that are not written are not given here.

B1: rGNA33: recombinant GNA33 of strain 2996, soluble protein without signal and lipid modification sequences (protein)
chain: MKKYLFRAALCGIAAAILAACQSKSIQTFPQPDTSVINGPDRPVGIPDPAGTTVGGGGAVYTVVPHLSLPHWAAQDFAKSLQSFRLGCANLKNRQGWQDVCAQAFQTPVHSVQAKQFFERYFTPWQVAGNGSLAGTVTGYYEPVLKGDDRRTAQARFPIYGIPDDFISVPLPAGLRSGKALVRIRQTGKNSGTIDNTGGTHTADLSQFPITARTTAIKGRFEGSRFLPYHTRNQINGGALDGKAPILGYAEDPVELFFMHIQGSGRLKTPSGKYIRIGYADKNEHPYVSIGRYMADKGYLKLGQTSMQGIKAYMQQNPQRLAEVLGQNPSYIFFRELTGSSNDGPVGALGTPLMGEYAGAVDRHYITLGAPLFVATAHPVTRKALNRLIMAQDTGSAIKGAVRVDYFWGYGDEAGELAGKQKTTGYVWQLLPNGMKPEYRP

Tests used:
anti-GNA33 mAb 25 = assay: Peptide binding assay with cellulose-bound spot-synthesised peptides; design: species or system mouse; conditions: for Dye Units (binding of anti-GNA33 mAb 25): mAb 25 6 μg/ml; for Relative Binding (of anti-GNA33 mAb 25): alanine substitution of PorA loop 4 VR type P1.2-2 10-mer
Experimental: Peptide spot synthesis was carried out on amino-PEG-cellulose membranes (ABIMED, Langerfeld, Germany) using a model ASP 222 automated spot synthesizer (ABIMED) and diisopropylcarbodiimide (DIC)/N-hydroxybenzotriazole (HOBt) activation (Frank and Overwin, Methods Mol. Biol. (1996) 66:149-169). In situ-prepared 0.2 M HOBt esters of fluorenylmethoxycarbonyl (Fmoc)-amino acid derivatives were used for the coupling reaction. […] After the final cycle, all the peptides were N-terminally acetylated with 2% acetic anhydride. At the end of the synthesis, the side-chain protecting groups were removed using a mixture of trifluoroacetic acid/triisobutylsilane/water/dichloromethane (50/3/2/45).
Cellulose-bound peptides were soaked in ethanol to prevent hydrophobic interactions between the peptides. Non-specific binding was blocked by incubating cellulose sheets overnight at 4° C. with 10 ml of 2% casein in Tris buffered saline (TBS: 50 mM Tris-HCl, 137 mM NaCl, […], pH 7.0), containing 0.05% TWEEN® 20 (T-TBS). The sheets were incubated for 2 hr at 37° C. with the anti-GNA33 mAb 25 (6 μg/ml) or an anti-PorA 1.2 mAb diluted 1:100 in T-TBS blocking buffer. Alkaline phosphatase-conjugated goat anti-mouse IgG (BioRad) was then added at 1:3000 dilution in T-TBS blocking buffer for 1 hr at 37° C. Sheets were washed three times with T-TBS and detection of binding was achieved by incubating the sheets with bromo-4-chloro-3-indolyl-phosphate (BCIP) (Sigma, Steinheim, Germany) and […] in substrate buffer (100 mM Tris, pH 8.9, 100 mM NaCl, 2 mM MgCl2). Quantitative evaluation of the signal was obtained using a Umax Speedy II 2200 optical scanner.

[1] = target: PorA of N. meningitidis strain M3735 (B:NT:P1.5,2) (Neisseria meningitidis serogroup B strain M3735); assay: cell-based or functional assay
[2] = target: PorA of N. meningitidis strain M986 (B:2a:P1.5,2) (Neisseria meningitidis serogroup B strain M986); assay: cell-based or functional assay
[3] = target: PorA of N. meningitidis strain NMB (B:2b:P1.5,2) (Neisseria meningitidis serogroup B strain NMB); assay: cell-based or functional assay
[4] = target: PorA of N. meningitidis strain M5545 (B:NT:P1.5,2) (Neisseria meningitidis serogroup B strain M5545); assay: cell-based or functional assay
[5] = target: PorA of N. meningitidis strain M5954 (C:2a:P1.2) (Neisseria meningitidis serogroup C strain M5954); assay: cell-based or functional assay
[6] = target: PorA of N. meningitidis strain 8047 (B:2b:P1.5,2) (Neisseria meningitidis serogroup B strain 8047); assay: cell-based or functional assay
[7] = target: PorA of N. meningitidis strain BZ232 (B:NT:P1.2) (Neisseria meningitidis serogroup B strain BZ232); assay: cell-based or functional assay
[8] = target: PorA of N. meningitidis strain M5682 (B:2a:P1.5,2) (Neisseria meningitidis serogroup B strain M5682); assay: cell-based or functional assay
[9] = target: PorA of N. meningitidis strain 2996 (B:2b:P1.5,2) (Neisseria meningitidis serogroup B strain 2996); assay: cell-based or functional assay
[10] = test system: encapsulated MenB strain 2996; conditions: mice immunized; measured against encapsulated MenB strain 2996; cited from earlier work
[11] = test system: P1.2 epitope of PorA loop 4; assay: Immunization of CD1 mice with rGNA33 in Freund's adjuvant; assay type: in vivo; conditions: recombinant protein simply mixed with Freund's adjuvant, without renaturation
Experimental: In order to prepare antisera against GNA33, 20 μg of purified HT-GNA33 or untagged rGNA33 was used to immunize six-week old CD1 female mice (four to ten mice per group). The mice were obtained from Charles River (Italia S.P.A., Calco, Italy, or Hollister, Calif.). The recombinant protein was given i.p, together with complete Freund's adjuvant (CFA) for the first dose and incomplete Freund's adjuvant (IFA) for the second (day 21) and third (day 35) booster doses. Blood samples were taken on days 34 and 49.

[12] = overlapping decapeptides from GNA33
[13] = overlapping decapeptides from loop 4 of PorA P1.2 (strain 2996)

Row | Molecule | Dye Units (binding of anti-GNA33 mAb 25) (anti-GNA33 mAb 25; [12]) [Dye Units] | Dye Units (binding of anti-GNA33 mAb 25) (anti-GNA33 mAb 25; [13]) [Dye Units] | other results
1 | AFQTPVHSFQ | 24 | – | –
2 | AHFVQQTPQS (Ac-AHFVQQTPQS) | – | 14 | –
3 | AQAFQTPVHS | 30 | – | –
4 | DVSAQAFQTP | 23 | – | –
5 | FQTPVHSFQA | 22 | – | –
6 | FVQQTPQSQP (Ac-FVQQTPQSQP) | – | 9 | –
7 | HFVQQTPQSQ (Ac-HFVQQTPQSQ) | – | 15 | –
8 | PAA FVQ QTP Q (Ac-PAAFVQQTPQ) | – | – | Relative Binding (of anti-GNA33 mAb 25) (anti-GNA33 mAb 25): 8
9 | PAH AVQ QTP Q (Ac-PAHAVQQTPQ) | – | – | Relative Binding (of anti-GNA33 mAb 25) (anti-GNA33 mAb 25): 1
10 | PAH FAQ QTP Q (Ac-PAHFAQQTPQ) | – | – | Relative Binding (of anti-GNA33 mAb 25) (anti-GNA33 mAb 25): 4
11 | PAH FVA QTP Q (Ac-PAHFVAQTPQ) | – | – | Relative Binding (of anti-GNA33 mAb 25) (anti-GNA33 mAb 25): 2
12 | PAH FVQ ATP Q (Ac-PAHFVQATPQ) | – | – | Relative Binding (of anti-GNA33 mAb 25) (anti-GNA33 mAb 25): 0
13 | PAH FVQ QAP Q (Ac-PAHFVQQAPQ) | – | – | Relative Binding (of anti-GNA33 mAb 25) (anti-GNA33 mAb 25): 0
14 | PAH FVQ QTA Q (Ac-PAHFVQQTAQ) | – | – | Relative Binding (of anti-GNA33 mAb 25) (anti-GNA33 mAb 25): 0
15 | PAHFVQQTPQ (Ac-PAHFVQQTPQ) | – | 10 | –
16 | PAK FVQ QTP A (PAHFVQQTPA) | – | – | Relative Binding (of anti-GNA33 mAb 25) (anti-GNA33 mAb 25): 2

Row | Molecule | Dye Units (binding of anti-GNA33 mAb 25) (anti-GNA33 mAb 25; [12]) [Dye Units] | Dye Units (binding of anti-GNA33 mAb 25) (anti-GNA33 mAb 25; [13]) [Dye Units] | other results
17 | PGH FVQ QTP Q (Ac-PGHFVQQTPQ) | – | – | Relative Binding (of anti-GNA33 mAb 25) (anti-GNA33 mAb 25): 8
18 | QAFQTPVHSF | 30 | – | –
19 | QDVSAQAFQT | 0 | – | –
20 | QQTPQSQPTL (Ac-QQTPQSQPTL) | – | 0 | –
21 | QTPQSQPTLV (Ac-QTPQSQPTLV) | – | 2 | –
22 | QTPVHSFQAK | 19 | – | –
23 | SAQAFQTPVH | 29 | – | –
24 | TPAHFVQQTP | – | 8 | –
25 | TPQSQPTVP | – | 2 | –
26 | TPVHSFQAKQ | 2 | – | –
27 | VQQTPQSQPT (Ac-VQQTPQSQPT) | – | 4 | –
28 | VSAQAFQTPV | 27 | – | –
29 | YTPAHFVQQT (Ac-YTPAHFVQQT) | – | 0 | –
30 | meningococcal Por A P1.2-specific subtyping mAb (MN16C13F4, subclass IgG2a) (antibody) | – | – | BC50, human complement [1]: < 0.5 µg/mL; BC50, human complement [2]: < 0.5 µg/mL; BC50, human complement [3]: < 0.5 µg/mL; BC50, human complement [4]: < 0.5 µg/mL; BC50, human complement [5]: < 0.5 µg/mL; BC50, human complement [6]: < 0.5 µg/mL; BC50, human complement [7]: < 0.5 µg/mL; BC50, human complement [8]: < 0.5 µg/mL; BC50, human complement [9]: < 0.5 µg/mL
31 | B1 | – | – | serum bactericidal antibody titers [10]: high; antibody elicited by immunization [11]: elicited bactericidal antibody
